Assay results published in US9642859B2, “Use of capsazepine and analogs thereof to treat cancer” (THE BOARD OF REGENTS OF THE UNIVERSITY OF TEXAS SYSTEM, priority 2012, dated 2017).
“Also recorded” adds a separate entry of the source.

What was measured:
OKF6 cells = test: Cell viability assay of immortalized non-malignant oral keratinocytes; assay type: cell-based; conditions: 24 hours
Source text: FIG. 1D-2. […] Treatment with high concentrations of CAP induces death of normal, non-malignant OKF6 cells. The effect of which was reversed by the pre-treatment with CPZ.

SCC4 = test: Cell cycle analysis by DNA profile FACS, SCC4; assay type: cell-based, human; conditions: 24 hours
Method: In particular, Table 1 provides additional cell cycle distribution data of OSCC cells (%) treated with 0 μM, 30 μM, 60 μM, or 90 μM CPZ for 24 hours. Data for OSCC cell lines HSC3, SCC4, and SCC25 are also provided in diagrams of FIGS. 1G-1, 1G-2, and 1G-3, respectively.

SCC25 = test: Additional cell proliferation assay, SCC25; assay type: cell-based, human; conditions: SCC25, 24 hour treatment
Source text: (§1) Observed reductions in cell proliferation in these additional in vitro studies are as follows: SCC4, 40%; HSC3, 50%; SCC25, 80%; Cal27, 15%; MDA231, 56%; and LnCap, 37%.

Cal27 = test: Additional cell proliferation assay, Cal27; assay type: cell-based, human; conditions: Cal27, 24 hour treatment
Source text: as §1

[1] = tested on: breast cancer cell line MDA231; test: Additional cell proliferation assay, MDA231; assay type: cell-based, human; conditions: MDA231, 24 hour treatment
Source text: as §1

[2] = tested on: prostate cancer cell line LnCap; test: Additional cell proliferation assay, LnCap; assay type: cell-based; conditions: 24 hour treatment
Source text: as §1

HSC3 xenografts = test: OSCC mouse xenograft model, HSC3; assay type: in vivo, athymic nude (nu/nu) mice; conditions: 40 μg CPZ intra-tumoral every other day
Source text: (§2) Animals. Six week-old female athymic nude (nu/nu) mice were purchased from HARLAN Laboratories (Indianapolis, Ind.) and used in a laminar air-flow cabinet under pathogen-free conditions. They were provided with a 12-h light/dark schedule at controlled temperature and humidity with food and water ad libitum. Mice were allowed to acclimate for at least one week prior to the start of the experiments. All procedures were approved by the UTHSCSA (University of Texas Health Science Center—San Antonio) Institutional Animal Care and Use Committee.
(§3) OSCC Mouse Xenograft Model. Mice were injected subcutaneously in the right flank with 2×10^6 HSC3, SCC4, or SCC25 cells in 0.1 ml of sterile phosphate buffered saline (each of these cell lines is published in scientific literature). Four weeks post-inoculation, tumors had grown to an average volume of 110 mm^3. Mice were then divided into two experimental groups of five animals each, which received the following treatments as intra-tumoral injections: group A, vehicle control (7% DMSO in sterile saline); group B, CPZ treatment (40 μg). The injections were repeated every other day and for a total of at least 14 days.
Treatments. […] Mice were monitored daily for tumor growth, cachexia, and weight loss. Tumor volumes and body weight were recorded every other day. Tumor volumes were calculated by the formula: (4π/3)×(w/2)2×(l/2), where w=width and l=length. […]

SCC4 xenografts = test: OSCC mouse xenograft model, SCC4; assay type: in vivo, athymic nude (nu/nu) mice
Source text: as §2, §3
Treatments. CPZ (5 mg) was diluted in 250 μl of 100% DMSO to yield a final concentration of 20 μg/μl of stock solution. Stock solution (100 m) was subsequently diluted in 7% DMSO in sterile saline generating a final concentration of 1 μg/μl. […] Control xenografts were injected intra-tumorally with 40 μl of vehicle control (7% DMSO). Mice were monitored daily for tumor growth, cachexia, and weight loss. Tumor volumes and body weight were recorded every other day. Tumor volumes were calculated by the formula: (4π/3)×(w/2)2×(l/2), where w=width and l=length. Measurements were made using a digital caliper. At the conclusion of the experiments, mice were anaesthetized with isoflurane and cervical dislocation, blood was collected, and the serum was separated and stored at −80° C. until assayed. Biochemical analysis of serum was performed by the Mouse Metabolic Phenotyping Center (Yale School of Medicine, New Haven, Conn.). […]

SCC25 xenografts = test: OSCC mouse xenograft model, SCC25; assay type: in vivo, athymic nude (nu/nu) mice
Source text: as §2
OSCC Mouse Xenograft Model. Mice were injected subcutaneously in the right flank with 2×10^6 HSC3, SCC4, or SCC25 cells in 0.1 ml of sterile phosphate buffered saline (each of these cell lines is published in scientific literature). Four weeks post-inoculation, tumors had grown to an average volume of 110 mm^3. […] The injections were repeated every other day and for a total of at least 14 days.
Treatments. CPZ (5 mg) was diluted in 250 μl of 100% DMSO to yield a final concentration of 20 μg/μl of stock solution. Stock solution (100 m) was subsequently diluted in 7% DMSO in sterile saline generating a final concentration of 1 μg/μl. […] Control xenografts were injected intra-tumorally with 40 μl of vehicle control (7% DMSO). Mice were monitored daily for tumor growth, cachexia, and weight loss. Tumor volumes and body weight were recorded every other day. Tumor volumes were calculated by the formula: (4π/3)×(w/2)2×(l/2), where w=width and l=length. Measurements were made using a digital caliper. At the conclusion of the experiments, mice were anaesthetized with isoflurane and cervical dislocation, blood was collected, and the serum was separated and stored at −80° C. until assayed. Biochemical analysis of serum was performed by the Mouse Metabolic Phenotyping Center (Yale School of Medicine, New Haven, Conn.). Tumors were dissected and placed in 10% neutral buffered formalin (SIGMA, St. Louis, Mo.) and processed for histological analysis.

[3] = tested on: voltage-activated calcium channels; conditions: cited from earlier work

Oc1cc2c(cc1O)CN(C(=S)NCCc1ccc(Cl)cc1)CCC2 [CPZ, 2-[2-(4-chlorphenyl)ethylamino-thiocarbonyl]-7,8-dihydroxy-2,3,4,5-tetrahydro-1H-2-benzazepine]
effect of CPZ on CAP-induced reduction in cell viability (OKF6 cells; CAP 150 μM / CPZ 30 μM): reversed the effects | toxicity on normal, non-malignant cells (OKF6 cells; CPZ 30 μM): non-toxic effect; also recorded: no toxicity was observed | G0/G1 (SCC4; SCC4, CPZ 30 μM): 70.77% | G2/M (SCC4; SCC4, CPZ 30 μM): 12.14% | S (SCC4; SCC4, CPZ 30 μM): 15.08% | SubG1 (SCC4; SCC4, CPZ 30 μM): 2.01% | G0/G1 (SCC4; SCC4, CPZ 60 μM): 21.03% | G2/M (SCC4; SCC4, CPZ 60 μM): 24.21% | S (SCC4; SCC4, CPZ 60 μM): 21.04% | SubG1 (SCC4; SCC4, CPZ 60 μM): 33.72% | G0/G1 (SCC4; SCC4, CPZ 90 μM): 15.61% | G2/M (SCC4; SCC4, CPZ 90 μM): 31.57% | S (SCC4; SCC4, CPZ 90 μM): 24.83% | SubG1 (SCC4; SCC4, CPZ 90 μM): 27.99% | reduction in cell proliferation (SCC25): 80% | reduction in cell proliferation (Cal27): 15% | reduction in cell proliferation [1]: 56% | reduction in cell proliferation [2]: 37% | healing of xenografts (HSC3 xenografts): complete healing in some treated HSC3 xenografts | tumor volume (HSC3 xenografts; two weeks, p<0.05): significant reduction in tumor volume | tumor growth rate (SCC4 xenografts; 40 μg CPZ intra-tumoral every other day, two weeks, p<0.05): significant reduction in tumor growth rate | growth of vehicle-control-treated tumors versus CPZ treated (SCC4 xenografts; 40 μg CPZ, day sixteen, p<0.01): two-fold greater | difference in tumor growth rates between vehicle control and treated mice (SCC4 xenografts; 60 μg CPZ, repeat experiments (data not shown)): 3 fold | decrease in tumor volume (SCC25 xenografts; 20 μg CPZ (1 μg/μl) injections over two weeks, FIG. 13): 57.5% | healing of xenografts (SCC25 xenografts; 20 μg CPZ intra-tumoral every other day): Nearly complete healing | tumor volume (SCC25 xenografts; 20 μg CPZ intra-tumoral every other day, two weeks, p<0.05): significant reduction in tumor volume | effect on voltage-activated calcium channels [3]: Inhibitis
